The numbers were not newly measured in patent US8530651B2, “Process for the preparation of anagrelide and analogues” (Shire LLC, priority 2008, dated 2013), which cites them from elsewhere.

Where two headings read alike, the source gives them in different places.

The conditions of series [1]: humans; radiolabeled base.
For series [2] the following is noted: monkeys; radiolabeled base.
The conditions of series [3]: solid.

Regarding `O=C1CN2Cc3c(ccc(Cl)c3Cl)N=C2N1` [anagrelide base, 6,7-dichloro-1,5-dihydroimidazo[2,1-b]quinazolin-2 (3H)-one], the “absorption into blood plasma” value in series [1] and in series [2] was “complete absorption” throughout. In series [3], the aqueous solubility result is on record as “low aqueous solubility”.
